One assay addresses Rhodesain (Trypanosoma brucei rhodesiense, UniProt Q95PM0). The assay can be described thus: Inhibition of Trypanosoma brucei rhodesiense C-terminal full length rhodesain expressed in Pichia pastoris using Cbz-PheArg-AMC as substrate measured every 30 sec for 10 mins by fluorescence based assay.
In a further assay the test system is Enterococcus faecium. Description: Antibacterial activity against Enterococcus faecium BM4147-1 assessed as reduction cell viability after 16 to 20 hrs by CLSI based two-fold serial dilution method. It counts as functional.
The next assay deals with HeLa. The assay can be described thus: Cytotoxicity against human HeLa cells assessed as reduction in cell viability after 24 hrs by resazurin staining based fluorescence assay. In general terms: Resazurin is reduced to fluorescent resorufin, in cell work by metabolically active cells.
The next assay relates to Staphylococcus aureus. The assay can be described thus: Antibacterial activity against Staphylococcus aureus ATCC 29213 assessed as reduction cell viability after 16 to 20 hrs by CLSI based two-fold serial dilution method. It counts as functional.
A further assay has as its system Bacillus subtilis. Description: Antibacterial activity against Bacillus subtilis 168 assessed as reduction cell viability after 16 to 20 hrs by CLSI based two-fold serial dilution method. It counts as functional.
Assay [1] has as its target Rhodesain (Trypanosoma brucei rhodesiense) (UniProt Q95PM0). The assay can be described thus: Inhibition of Trypanosoma brucei rhodesiense C-terminal full length rhodesain expressed in Pichia pastoris at 50 uM using Cbz-PheArg-AMC as substrate measured every 30 sec for 10 mins in presence of 0.005 to 0.025 % of Brij-35 by fluorescence based assay.
For assay [2] the target is unchanged. The assay can be described thus: Inhibition of Trypanosoma brucei rhodesiense C-terminal full length rhodesain expressed in Pichia pastoris at 50 uM using Cbz-PheArg-AMC as substrate measured every 30 sec for 10 mins in presence of 4.75 mM DTT by fluorescence based assay.
Assay [3] has the same target. Description: Inhibition of Trypanosoma brucei rhodesiense C-terminal full length rhodesain expressed in Pichia pastoris using Cbz-PheArg-AMC as substrate preincubated for 5 to 30 mins followed by substrate and measured every 30 sec for 10 mins by fluorescence based assay.

Converted amounts (≈) assume the structure as drawn. The source made the active and inactive calls. The rule behind the calls is not given here.

Sequence of Rhodesain (Q95PM0 whole entry): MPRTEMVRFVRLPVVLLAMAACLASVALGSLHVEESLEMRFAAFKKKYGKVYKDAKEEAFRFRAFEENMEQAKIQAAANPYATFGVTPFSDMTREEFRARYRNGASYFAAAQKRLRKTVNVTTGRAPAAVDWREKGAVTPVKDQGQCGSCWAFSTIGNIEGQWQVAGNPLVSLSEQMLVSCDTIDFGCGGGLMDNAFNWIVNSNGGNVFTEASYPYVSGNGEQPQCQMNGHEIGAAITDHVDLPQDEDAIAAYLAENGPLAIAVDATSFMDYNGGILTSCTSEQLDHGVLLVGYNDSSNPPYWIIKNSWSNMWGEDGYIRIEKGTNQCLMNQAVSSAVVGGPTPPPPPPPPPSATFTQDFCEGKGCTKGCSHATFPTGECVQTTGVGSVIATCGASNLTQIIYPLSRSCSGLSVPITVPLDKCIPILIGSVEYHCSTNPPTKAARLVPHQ
Sequence of Rhodesain (Trypanosoma brucei rhodesiense) (Q95PM0 1-450): as the sequence (Q95PM0 whole entry) above

As a reminder, the IC50 is the midpoint of a concentration-inhibition curve. Usually MIC stands for the lowest concentration that inhibits growth of the organism. Regarding `O=C1C(Cc2ccc(O)cc2)=C(Cc2ccc(O)cc2)C(=O)C1(c1ccc(O)cc1)c1cc(Cc2c(Cc3ccc(O)cc3)cc(-c3ccc(O)cc3)oc2=O)c(O)cc1O`, the IC50 against Rhodesain and with HeLa was 33 µM in each case. The MIC in the assay with Enterococcus faecium came out at 13 µM (≈ 10.6 µg/mL); in the assay with Staphylococcus aureus it was 3 µM (≈ 2.44 µg/mL); with Bacillus subtilis, 3 µM (≈ 2.44 µg/mL).

As to `O=C1C(Cc2ccc(O)cc2)=C(Cc2ccc(O)cc2)C(=O)C1(c1ccc(O)cc1)C1(c2ccc(O)cc2)C(=O)C(Cc2ccc(O)cc2)=C(Cc2ccc(O)cc2)C1=O`, the results for the concentration for half-maximal inhibition (IC50) on Rhodesain and in the assay on HeLa were 15 µM and 16 µM, respectively. Moreover, the MIC with Enterococcus faecium, in the assay with Staphylococcus aureus and in the assay with Bacillus subtilis was 13 µM (≈ 10.4 µg/mL) throughout. For the same molecule, the inhibition result in assay [1], in assay [2] and in assay [3] was “Active” in each case.

For `O=c1oc(-c2ccc(O)cc2)cc(Cc2ccc(O)cc2)c1Cc1ccc(O)cc1O`, the IC50 at Rhodesain stood at 63 µM; with HeLa, 84 µM. For the same molecule, the MIC in the assay with Enterococcus faecium came out at 100 µM (≈ 41.6 µg/mL); in the assay on Staphylococcus aureus it was 50 µM (≈ 20.8 µg/mL); with Bacillus subtilis, 50 µM (≈ 20.8 µg/mL).

The record behind these values is ChEMBL document CHEMBL4602666, “Nostotrebin 6 Related Cyclopentenediones and δ-Lactones with Broad Activity Spectrum Isolated from the Cultivation Medium of the Cyanobacterium Nostoc sp. CBT1153” (J Nat Prod, 2020).
